Data taken from US9943500B2, “Methods of treating topical microbial infections” (LUODA PHARMA PTY LIMITED, priority 2013, dated 2018).
≈ marks a conversion by molar mass, not a printed value.

Key:
[1] = system: methicillin-sensitive and methicillin-resistant strains of Staphylococcus; test: Minimum bactericidal concentration determination, Staphylococcus isolates (Example 1)
Protocol: Following determination of the MIC using the 96 well MIC plate, a variation of the drop plate method was used to determine minimum bactericidal concentration (MBC) for each of the test compounds. These were analysed using samples taken from the MIC plate following incubation. […] Each concentration was pipetted in duplicate with duplicates being pipetted on an inner ring of drops. The plates were incubated at 37° C. overnight and assessed the following day for growth. The MBC was defined as the concentration at which 99.9% of colonies were eradicated, which was visually assessed by a lack of growth on the agar where the drop was placed.

[2] = system: 51 Australian bovine mastitis isolates, primarily S. aureus, S. agalactiae and S. uberis; test: Minimum inhibitory concentration assay, bovine mastitis isolates (Example 3); type: cell-based; settings: all 51 isolates; read-out: MIC90
Excerpt: Fifty-one dairy bovine mastitis isolates, encompassing a variety of bacterial species, were isolated from milk samples collected from dairy farms in rural South Australia by the University of Adelaide Ambulatory Clinic. Cellular morphology observed from Gram stains and catalase testing was used to differentiate Staphylococcus, Streptococcus and Corynebacterium species from Gram-negative species. Further biochemical testing including coagulase, Lancefield grouping, esculin hydrolysis and CAMP tests were used to identify the isolates to species level. Where biochemical test results were not definitive in identifying species, amplification and sequencing of the 16S ribosomal RNA gene was used to confirm the identity of the isolates.
Minimum inhibitory concentration tests were performed in the manner outlined by the CLSI (CLSI 2012). Test compounds were dispensed into a 96-well microtitre tray containing 90 μl of CAMHB in 90 μl volumes and serial diluted to obtain a concentration gradient ranging from 128 μg/ml to 0.25 μg/ml (see FIG. 24). For Streptococcus species, CAMHB was replaced with a CAMHB supplement with 4% lysed-sheep blood (4% LSB:CAMHB). 4% LSB:CAMHB was prepared by mixing 5 ml sheep blood to 5 ml milliQ water, and repeated freezing at −20° C. and thawing, followed by centrifuged for 20 min at 7000 rpm. 7 ml of the supernatant was removed and added to 93 mL of CAMB.
Bacterial suspensions were prepared by emulsifying fresh colonies obtained from an overnight culture on Sheep Blood Agar (SBA) in 4 mls of 9.1 g/l physiological saline to an optical density read at 600 nm (OD600 nm) between 1.00 and 1.20. Standardised bacterial suspensions were diluted 1:10 in physiological saline and dispensed into all wells, excluding the negative control wells, in 10 μL volumes giving a final concentration of between 4×10^5 and 5×10^5 CFU/mL in each well. 96-well microtitre trays were incubated for 24 hours at 37° C. in 5% CO2 and then assessed both visually and using OD readings from a microplate reader at a wavelength of 600 nm. These tests were performed in duplicate and repeated if discrepancies in MIC values were observed between replicates.
The minimum inhibitory concentration (MIC) was determined to be the lowest concentration of antibiotic that prevented growth of bacteria both visually and using OD readings. MIC values were collated and used to determine the lowest concentration of each compound effective against 50% and 90% of isolates, known as the MIC50 and MIC90 respectively. These values as well as the range of MIC values were then used for direct comparisons between test compounds and for general comparisons with ampicillin.

[3] = system: methicillin sensitive and methicillin-resistant staphylococci; test: Minimum inhibitory concentration assay, 42 Staphylococcus isolates (Example 1); type: cell-based
Protocol: Forty-two isolates of Staphylococcus of varying species and strain type were collected from isolate collections. Biochemical testing including coagulase, latex agglutination testing for protein A, Vogues-Proskauer tests and resistance to polymyxin B were used to identify the species of Staphylococcus. All isolates were also screened for resistance to various antimicrobials commonly used for the treatment of skin infections. This was performed using the disk diffusion method and resistance standards as outlined by the CLSI. The following antimicrobials were used: amoxicillin-clavulanic acid (30 μg), cephalothin (30 μg), clindamycin (2 μg), enrofloxacin (5 μg), erythromycin (15 μg), gentamicin (10 μg), imipenem (10 μg), oxacillin (1 μg), penicillin G (10 units), tetracycline (30 μg), 1:19 trimethoprim-sulfamethoxazole (25 μg) and vancomycin (30 μg).
Minimum inhibitory concentration tests were performed according to CLSI Standards (CLSI 2012). 90 μL of one of the test compound solutions, or ampicillin, was added to the end column of a 96 well plate that contained 90 μL of CAMHB in each well. The solutions were then serially diluted across the row, leaving 2 columns for positive and negative controls (FIG. 2). A bacterial suspension was prepared by adding fresh colonies obtained from an overnight culture on Sheep Blood Agar (SBA) to a 9.1 g/L saline solution. This suspension was adjusted to a concentration of between 4×10^8 and 5×10^8 CFU/mL. […] 1 mL of this suspension was added to 9 mL of saline before being added to all wells, excluding the negative control wells, in 10 μL volumes giving a final concentration of between 4×10^5 and 5×10^5 CFU/mL in each well. The tests were then incubated for 24 hours at 37° C. and then assessed both visually and using OD readings from a microplate reader at a wavelength of 600 nm. These tests were performed in duplicate but repeated if discrepancies were observed.
The minimum inhibitory concentration (MIC) was determined to be the lowest concentration of antibiotic that prevented growth of bacteria both visually and using OD readings. Direct statistical comparisons between the test compounds and ampicillin could not be performed in light of confidential information restrictions, such as restrictions on disclosure of information relating to the compound structure, such as molecular weight. Instead, MIC values were collated and used to determine the lowest concentration of each compound that was effective against 50% and 90% of isolates, referred to as the MIC50 and MIC90 respectively. These values as well as the range of MIC values were then used for direct comparisons between test compounds and for general comparisons with ampicillin.

[4] = system: MRSA 9; test: Macrodilution time-kill assay (viable counts); settings: 24 hours; all concentrations tested
Protocol: Due to the detection limit of the OD measurements, the time-kill assays were also performed in macrodilution. In 15 mL tubes, 9 mL volumes of the test compounds in CAMHB were prepared at one, four and eight times the MIC concentration and 9 mL volumes of ampicillin were prepared in CAMHB at one and four times the MIC. 1 mL of a 4 to 5×10^6 bacterial suspension (as prepared for MIC testing) was added to each of the tubes as well as a growth control tube containing only 9 mL of CAMHB. These tubes were incubated at 37° C. in an orbital shaker rotating at 100 rpm for 24 hours. At 0, 1, 4, 8, 12 and 24 hours after addition of the bacteria, 100 μL samples were removed from each tube and serial diluted in 9.1 g/L saline solution. The dilutions were then plated in duplicate onto plate count agar and incubated for 24 hours at 37° C. After incubation, viable counts were obtained from the number of colonies visible on the agar and these were used to calculate the number of CFU/mL at each time point. For the macrodilution time-kill analysis, only the ATCC 49775 reference strain and MRSA 9 were assessed in order to further investigate the antibacterial activity against methicillin-resistant strains. These macrodilution time-kill assays were independently repeated and bactericidal activity was defined as a ≥3 log decrease in the number of CFU/mL.

SMILES: CC[C@@H](C(=O)[C@@H](C)[C@@H](O)[C@H](C)CCc1ccc(C)c(O)c1C(=O)O)[C@H]1O[C@](CC)([C@H]2CC[C@](O)(CC)[C@H](C)O2)C[C@@H]1C [LP 1369, Lasalocid]
- bactericidal activity (MBC testing) ([1]; lower concentrations): some bactericidal activity in lower concentrations
- MBC50 rank among test compounds ([1]; methicillin-sensitive isolates): lowest MBC50 values
- strain type for which bactericidal activity was more consistent ([1]; methicillin-sensitive versus methicillin-resistant strains): more consistently for methicillin-sensitive strains
- MIC90 [2]: 4 µg/mL (≈ 6.77 µM)
- MIC50 and MIC90 values compared with ampicillin [3]: considerably lower than ampicillin
- decrease in the number of viable bacteria [4]: < 3 log10
